# According to US20070049564A1 (Wyeth, priority 2005, published 2007):
# Read-outs that look alike come from different tables or passages of the source.
# What was measured:
# E. faecium GC 4556 = assay: MIC, broth microdilution; conditions: Enterococcus faecium, GC4556, E. faecium GC 4556
# Procedure: (§1) Antimicrobial susceptibility testing. The in vitro activities of the antibiotics are determined by the broth microdilution method as recommended by the National Committee for Clinical Laboratory Standards (NCCLS) (1). Mueller-Hinton II broth (MHBII)(BBL Cockeysville, Md.) is the medium employed in the testing procedures. Microtiter plates containing serial dilutions of each antimicrobial agent are inoculated with each organism to yield the appropriate density (10^5 CFU/ml) in a 100 μl final volume. The plates are incubated for 18-22 hours at 35° C. in ambient air.
# (§2) Representative compounds were first incubated in mouse serum for an hour prior to the in vitro testing against a panel of selected gram-positive and gram-negative bacteria strains. All compounds were also pre-incubated in water for an hour prior to testing as control. Representative compounds of Formula I were incubated in human serum prior to MIC determination.
# E. coli GC 2235 = assay: MIC, broth microdilution; conditions: Escherichia coli, GC2235, E. coli GC 2235
# S. pneumoniae+ GC 4465 = assay: MIC, broth microdilution; conditions: Streptococcus pneumoniae, S. pneumoniae+ GC 4465
# S. aureus GC 6466 = assay: MIC, broth microdilution; conditions: Staphylococcus aureus, GC6466, S. aureus GC 6466
# E. coli = assay: Range of MIC for E. coli strains; conditions: Escherichia coli
# Procedure: as §1, §2
# E. coli GC 2232 = assay: MIC, broth microdilution; conditions: Escherichia coli, GC2232, E. coli GC 2232
# E. coli GC 2234 = assay: MIC, broth microdilution; conditions: Escherichia coli, GC2234, E. coli GC 2234
# S. pyogenes GC 4563 = assay: MIC, broth microdilution; conditions: Streptococcus pyogenes, GC4563, S. pyogenes GC 4563
# E. faecalis GC 4555 = assay: MIC, broth microdilution; conditions: Enterococcus faecalis, GC4555, E. faecalis GC 4555
# S. agalactiae GC 4564 = assay: MIC, broth microdilution
# S. aureus GC 2216 = assay: MIC, broth microdilution; conditions: Staphylococcus aureus, GC2216, S. aureus GC 2216
# Staph. aureus Smith = assay: In vivo activity (oral, iv; ED50) against Staph. aureus Smith in mice
# Procedure: Representative examples of compounds of Formula I were tested for the oral efficacy using S. aureus Smith in mice.
# S. aureus GC 4536 = assay: MIC, broth microdilution; conditions: Staphylococcus aureus, GC4536, S. aureus GC 4536
# S. typhimurium GC 2172 = assay: MIC, broth microdilution; conditions: Salmonella enterica, TYPHIMURIUM, S. typhimurium GC 2172
# E. coli GC 2231 = assay: MIC, broth microdilution; conditions: Escherichia coli, GC2231, E. coli GC 2231
# Procedure: as §1
# Representative compounds were first incubated in mouse serum for an hour prior to the in vitro testing against a panel of selected gram-positive and gram-negative bacteria strains. All compounds were also pre-incubated in water for an hour prior to testing as control.
# Staph. = assay: Range of MIC for Staph. strains, including MRSA; conditions: Staphylococcus aureus, MRSA
# E. coli GC 4559 = assay: MIC, broth microdilution; conditions: Escherichia coli, GC4559, E. coli GC 4559
# E. faecalis GC 2242 = assay: MIC, broth microdilution; conditions: Enterococcus faecalis, GC2242, E. faecalis GC 2242
# S. pneumoniae* GC 4465 = assay: MIC, broth microdilution; conditions: Streptococcus pneumoniae, S. pneumoniae* GC 4465
# E. coli GC 2236 = assay: MIC, broth microdilution; conditions: Escherichia coli, GC2236, E. coli GC 2236
# [1] = 20 h, read-out: Range of MIC, E. coli (Mouse Serum)
# [2] = read-out: Minimum inhibitory concentration (MIC), E. coli (mouse serum)
# [3] = read-out: Minimum inhibitory concentration (MIC), E. coli (water)
# [4] = read-out: Range of MIC, E. coli (Water)
# [5] = Staphylococcus aureus, in Mus musculus, po, read-out: ED50 Staph Smith SOD
# [6] = iv, read-out: ED50 Staph Smith SIV
# [7] = read-out: Minimum inhibitory concentration (MIC), Staph. (mouse serum)
# [8] = read-out: Minimum inhibitory concentration (MIC), Staph. (water)
# [9] = read-out: Range of MIC, Staph (Mouse Serum)
# [10] = read-out: Range of MIC, Staph (Water)
compound,measurement,setting,value
"CCCCN(CC(=O)Nc1cc(N(C)C)c2c(c1O)C(=O)C1=C(O)[C@]3(O)C(=O)C(C(N)=O)=C(O)[C@@H](N(C)C)[C@@H]3C[C@@H]1C2)C(=O)OCOC(=O)C(C)(C)C [Example 13, ({[(2-{[(5aR,6aS,7S,10aS)-9-(aminocarbonyl)-4,7-bis(dimethylamino)-1,8,10a,11-tetrahydroxy-10,12-dioxo-5,5a,6,6a,7,10,10a,12-octahydrotetracen-2-yl]amino}-2-oxoethyl)(butyl)amino]carbonyl}oxy)methyl pivalate]",MIC,E. faecium GC 4556; Mouse Serum pre-incubation,2 µg/mL
same,MIC,E. faecium GC 4556; Water pre-incubation,8 µg/mL
same,MIC,E. coli GC 2235; Mouse Serum pre-incubation,2 µg/mL
same,MIC,E. coli GC 2235; Water pre-incubation,8 µg/mL
same,MIC,S. pneumoniae+ GC 4465; Mouse Serum pre-incubation,8 µg/mL
same,MIC,S. pneumoniae+ GC 4465; Water pre-incubation,8 µg/mL
same,MIC,S. aureus GC 6466; Mouse Serum pre-incubation,1 µg/mL
same,MIC,S. aureus GC 6466; Water pre-incubation,2 µg/mL
same,MIC,E. coli; [1],1 to 4 µg/mL
same,MIC,E. coli; [2],1 to 4 µg/mL
same,MIC,E. coli; [3],8 to 16 µg/mL
same,MIC,E. coli; [4],8 to 16 µg/mL
same,MIC,E. coli GC 2232; Mouse Serum pre-incubation,2 µg/mL
same,MIC,E. coli GC 2232; Water pre-incubation,8 µg/mL
same,MIC,E. coli GC 2234; Mouse Serum pre-incubation,1 µg/mL
same,MIC,E. coli GC 2234; Water pre-incubation,8 µg/mL
same,MIC,S. pyogenes GC 4563; Mouse Serum pre-incubation,0.5 µg/mL
same,MIC,S. pyogenes GC 4563; Water pre-incubation,1 µg/mL
same,MIC,E. faecalis GC 4555; Mouse Serum pre-incubation,2 µg/mL
same,MIC,E. faecalis GC 4555; Water pre-incubation,4 µg/mL
same,MIC,"S. agalactiae GC 4564; Streptococcus agalactiae, GC4564, S. agalactiae GC 4564, Mouse Serum pre-incubation",1 µg/mL
same,MIC,"S. agalactiae GC 4564; Streptococcus agalactiae, GC4564, S. agalactiae GC 4564, Water pre-incubation",2 µg/mL
same,MIC,S. aureus GC 2216; Mouse Serum pre-incubation,2 µg/mL
same,MIC,S. aureus GC 2216; Water pre-incubation,4 µg/mL
same,ED50,Staph. aureus Smith; [5],11 mg/kg
same,ED50,Staph. aureus Smith; [6],0.82 mg/kg
same,MIC,S. aureus GC 4536; Mouse Serum pre-incubation,1 µg/mL
same,MIC,S. aureus GC 4536; Water pre-incubation,2 µg/mL
same,MIC,S. typhimurium GC 2172; Mouse Serum pre-incubation,8 µg/mL
same,MIC,S. typhimurium GC 2172; Water pre-incubation,64 µg/mL
same,MIC,E. coli GC 2231; Mouse Serum pre-incubation,2 µg/mL
same,MIC,E. coli GC 2231; Water pre-incubation,16 µg/mL
same,MIC,Staph.; [7],1 to 4 µg/mL
same,MIC,Staph.; [8],2 to 8 µg/mL
same,MIC,Staph.; [9],1 to 4 µg/mL
same,MIC,Staph.; [10],2 to 8 µg/mL
same,MIC,E. coli GC 4559; Mouse Serum pre-incubation,4 µg/mL
same,MIC,E. coli GC 4559; Water pre-incubation,16 µg/mL
same,MIC,E. faecalis GC 2242; Mouse Serum pre-incubation,4 µg/mL
same,MIC,E. faecalis GC 2242; Water pre-incubation,8 µg/mL
same,MIC,S. pneumoniae* GC 4465; Mouse Serum pre-incubation,0.5 µg/mL
same,MIC,S. pneumoniae* GC 4465; Water pre-incubation,0.5 µg/mL
same,MIC,E. coli GC 2236; Mouse Serum pre-incubation,2 µg/mL
same,MIC,E. coli GC 2236; Water pre-incubation,8 µg/mL
"CCCCN(CC(=O)Nc1cc(N(C)C)c2c(c1O)C(=O)C1=C(O)[C@]3(O)C(=O)C(C(N)=O)=C(O)[C@@H](N(C)C)[C@@H]3C[C@@H]1C2)C(=O)OCOC(=O)Cc1ccccc1 [Example 12, ({[(2-{[(5aR,6aS,7S,10aS)-9-(aminocarbonyl)-4,7-bis(dimethylamino)-1,8,10a,11-tetrahydroxy-10,12-dioxo-5,5a,6,6a,7,10,10a,12-octahydrotetracen-2-yl]amino}-2-oxoethyl)(butyl)amino]carbonyl}oxy)methyl phenylacetate]",MIC,E. faecium GC 4556; Mouse Serum pre-incubation,1 µg/mL
same,MIC,E. faecium GC 4556; Water pre-incubation,4 µg/mL
same,MIC,E. coli GC 2235; Mouse Serum pre-incubation,1 µg/mL
same,MIC,E. coli GC 2235; Water pre-incubation,16 µg/mL
same,MIC,S. pneumoniae+ GC 4465; Mouse Serum pre-incubation,4 µg/mL
same,MIC,S. pneumoniae+ GC 4465; Water pre-incubation,8 µg/mL
same,MIC,S. aureus GC 6466; Mouse Serum pre-incubation,0.5 µg/mL
same,MIC,S. aureus GC 6466; Water pre-incubation,1 µg/mL
same,MIC,E. coli; [1],0.5 to 2 µg/mL
same,MIC,E. coli; [2],0.5 to 2 µg/mL
same,MIC,E. coli; [3],16 to 64 µg/mL
same,MIC,E. coli; [4],16 to 64 µg/mL
same,MIC,E. coli GC 2232; Mouse Serum pre-incubation,0.5 µg/mL
same,MIC,E. coli GC 2232; Water pre-incubation,32 µg/mL
same,MIC,E. coli GC 2234; Mouse Serum pre-incubation,1 µg/mL
same,MIC,E. coli GC 2234; Water pre-incubation,16 µg/mL
same,MIC,S. pyogenes GC 4563; Mouse Serum pre-incubation,0.12 µg/mL
same,MIC,S. pyogenes GC 4563; Water pre-incubation,0.25 µg/mL
same,MIC,E. faecalis GC 4555; Mouse Serum pre-incubation,0.5 µg/mL
same,MIC,E. faecalis GC 4555; Water pre-incubation,4 µg/mL
same,MIC,"S. agalactiae GC 4564; S. agalactiae GC 4564, Water pre-incubation",0.25 UG/ML
same,MIC,"S. agalactiae GC 4564; Streptococcus agalactiae, GC4564",0.25 µg/mL
same,MIC,S. aureus GC 2216; Mouse Serum pre-incubation,1 µg/mL
same,MIC,S. aureus GC 2216; Water pre-incubation,4 µg/mL
same,ED50,Staph. aureus Smith; [5],15 mg/kg
same,ED50,Staph. aureus Smith; [6],1 mg/kg
same,MIC,S. aureus GC 4536; Mouse Serum pre-incubation,1 µg/mL
same,MIC,S. aureus GC 4536; Water pre-incubation,2 µg/mL
same,MIC,S. typhimurium GC 2172; Mouse Serum pre-incubation,4 µg/mL
same,MIC,S. typhimurium GC 2172; Water pre-incubation,> 64 µg/mL
same,MIC,E. coli GC 2231; Mouse Serum pre-incubation,2 µg/mL
same,MIC,E. coli GC 2231; Water pre-incubation,64 µg/mL
same,MIC,Staph.; [7],0.5 to 4 µg/mL
same,MIC,Staph.; [8],1 to 16 µg/mL
same,MIC,Staph.; [9],0.5 to 4 µg/mL
same,MIC,Staph.; [10],1 to 16 µg/mL
same,MIC,E. coli GC 4559; Mouse Serum pre-incubation,1 µg/mL
same,MIC,E. coli GC 4559; Water pre-incubation,64 µg/mL
same,MIC,E. faecalis GC 2242; Mouse Serum pre-incubation,2 µg/mL
same,MIC,E. faecalis GC 2242; Water pre-incubation,4 µg/mL
same,MIC,S. pneumoniae* GC 4465; Mouse Serum pre-incubation,< 0.06 µg/mL
same,MIC,S. pneumoniae* GC 4465; Water pre-incubation,0.12 µg/mL
same,MIC,E. coli GC 2236; Mouse Serum pre-incubation,1 µg/mL
same,MIC,E. coli GC 2236; Water pre-incubation,16 µg/mL
